These results are taken from paper PMC12406253, “Exploration of the Neuromodulatory Properties of Fyn and GSK-3β Kinases Exploiting 7‑Azaindole-Based Inhibitors” (Journal of Medicinal Chemistry, 2025).

What is called inhibition is how much of the control response was suppressed. As usually defined, the IC50 is the concentration at which inhibition is half-maximal.

Where a name gives a salt, the structure may show the parent alone.

In one data set the target is human recombinant GSK-3β (Homo sapiens, UniProt P49841). As to the kind of experiment: GSK-3β kinase assay, LANCE Ultra TR-FRET. It is filed as biochemical. Particulars: for inhibition at 50 µM / GSK-3β % Inhibition @ 50 μM: mean ± SD, n.i. = no inhibition; for IC50: mean ± SD of at least three independent determinations, ATP near Km. The protocol: GSK-3β and FYNα kinase assays were run in 384-well microplates (OptiPlate-384, White, PerkinElmer) in a total reaction volume of 20 μL. The inhibitory potency against human recombinant GSK-3β and FYNα (Carna Biosciences) was evaluated using the LANCE Ultra (PerkinElmer) time-resolved fluorescence resonance energy transfer (TR-FRET) by measuring the phosphorylation of the ULight-labeled substrate, according to the manufacturer's instructions. […] Briefly, test compounds and staurosporine (reference compound) or DMSO (control) are mixed with the enzyme (GSK-3β: 2 nM and FYNα: 1 nM) in a buffer containing 50 mM HEPES (pH 7.5), 1 mM EGTA, 10 mM MgCl2, 2 mM DTT, and 0.01% Tween-20. […] Following incubation, the reaction is stopped by adding 6 mM EDTA. After 5 min, the antiphospho antibody labeled with europium chelate is added. After 1 more hour, the kinase reaction is monitored by irradiation at 320 nm and the fluorescence measured at 615 and 665 nm, using EnVision 2014 Multilabel Reader (PerkinElmer). The calculated signal ratio at 665/615 nm is proportional to the extent of ULight-substrate phosphorylation. The compounds were tested at 11 different concentrations ranging from 3 nM up to 100 μM in triplicate. […] The results were expressed as a percent inhibition of the control enzyme activity. Dose-response curves were run in at least three independent experiments, performed in three technical replicates. IC50 values (concentrations causing half-maximal enzyme inhibition) were determined by nonlinear regression analysis of the Log[concentration]/response curves generated with mean replicate values using a four parameter Hill equation curve fitting with GraphPad Prism 8 (GraphPad Software Inc., CA-USA).

The next data set addresses FYNα (Homo sapiens, UniProt P06241). Description: FYNα kinase assay, LANCE Ultra TR-FRET. It is filed as biochemical. Conditions: for Fyn % Inhibition @ 50 μM / inhibition at 50 µM: mean ± SD, n.i. = no inhibition; for IC50: mean ± SD of at least three independent determinations, ATP near Km, read-out: Fyn IC50; for inhibition at 50 µM: read-out: Fyn % Inhibition @ 50 μM. The protocol: GSK-3β and FYNα kinase assays were run in 384-well microplates (OptiPlate-384, White, PerkinElmer) in a total reaction volume of 20 μL. The inhibitory potency against human recombinant GSK-3β and FYNα (Carna Biosciences) was evaluated using the LANCE Ultra (PerkinElmer) time-resolved fluorescence resonance energy transfer (TR-FRET) by measuring the phosphorylation of the ULight-labeled substrate, according to the manufacturer’s instructions. The synthetic peptide surrounding Ser641 of human muscle glycogen synthase (ULight-GS (Ser641/pSer657)) and the synthetic 28-amino acid peptide containing eight Tyr residues placed in different amino acid contexts (ULightTM-TK (PT66)) were selected as specific substrates for GSK-3β and FYNα, respectively. Briefly, test compounds and staurosporine (reference compound) or DMSO (control) are mixed with the enzyme (GSK-3β: 2 nM and FYNα: 1 nM) in a buffer containing 50 mM HEPES (pH 7.5), 1 mM EGTA, 10 mM MgCl2, 2 mM DTT, and 0.01% Tween-20. […] Following incubation, the reaction is stopped by adding 6 mM EDTA. After 5 min, the antiphospho antibody labeled with europium chelate is added. After 1 more hour, the kinase reaction is monitored by irradiation at 320 nm and the fluorescence measured at 615 and 665 nm, using EnVision 2014 Multilabel Reader (PerkinElmer). The calculated signal ratio at 665/615 nm is proportional to the extent of ULight-substrate phosphorylation. The compounds were tested at 11 different concentrations ranging from 3 nM up to 100 μM in triplicate. […] The results were expressed as a percent inhibition of the control enzyme activity.
Dose–response curves were run in at least three independent experiments, performed in three technical replicates. IC50 values (concentrations causing half-maximal enzyme inhibition) were determined by nonlinear regression analysis of the Log[concentration]/response curves generated with mean replicate values using a four parameter Hill equation curve fitting with GraphPad Prism 8 (GraphPad Software Inc., CA-USA).
On the technique in general: In TR-FRET formats the signal depends on donor and acceptor labels being close together.

In data set [1] the test system is neurospheres (NPCs from the subventricular zone). Description: Neurosphere growth analysis (NPC proliferation). It is filed as cell-based, mice. Particulars: 0.1, 1, and 5 μM; 7 days. The protocol:
Based on that, we further investigated the neurogenic and differentiation potential of our kinase inhibitors in cell culture of neurospheres, which are floating pools of NPCs coming from the subventricular zone (SVZ) of six-month-old mice. Particularly, we first analyzed the variation, during 7 days, in number and size of neurosphere population with and without treatment.
To investigate the effect of compounds of interest in neurospheres’ growth rate, single spheres were plated in suspension in 96-well plates (5 × 10^3 cells/well) in the presence of compounds (0.1 μM, 1 μM, and 5 μM) in complete DMEM F-12 culture medium. One image/well was acquired every day by using the Sartorius Incucyte Live-Cell Analysis System and evaluated through the Brightfield Spheroid Analysis Software Module. Only aggregates with areas larger than 400 μm^2 were considered for statistical analysis.

In data set [2] the test system is immortalized murine microglia N9. As to the kind of experiment: Immunomodulation in LPS-treated N9 microglia, Western blot of iNOS and TREM2. Particulars: 2.5 and 5 μM; 100 ng/mL LPS, 24 h. For orientation: In western blotting, separated proteins are transferred to a membrane and probed.
Protocol: To gain a conclusive answer on the potential role of these kinase inhibitors in counteracting neuroinflammatory processes, after the verified induced astrocytic polarization, the ability of selected compounds to modulate inflammatory response was analyzed by favoring the immunomodulatory switch from neurotoxic M1 phenotype of microglia to phagocytic and neuroprotective M2 phenotype, evaluating inducible nitric oxide synthase (iNOS) and TREM2 as M1 and M2 markers (Figure ).
The microglial phenotype was evaluated through Western blot analysis of the pro-inflammatory iNOS and anti-inflammatory-TREM2 markers.
The subject of data set [3] is primary rat cerebellar granule neurons (CGNs). Description: Neurotoxicity, cell viability in CGNs (MTT). It is filed as cell-based. Particulars: 5, 10, and 25 μM, 24 h.
Protocol: A preliminary cell viability assessment was conducted in primary rat cerebellar granule neurons (CGNs), which are considered a reliable model for studying cellular and molecular mechanisms of survival/apoptosis and neurodegeneration/neuroprotection.
Primary cerebellar granule cells were dissociated from cerebella and plated on 96-well plates, previously coated with 10 μg/mL poly-L-lysine, at a density of 1.2 × 10^5 cells/0.2 mL medium/well in BME supplemented with 10% heat-inactivated FBS (Life Technologies), 2 mmol/L glutamine, 100 μmol/L gentamicin sulfate, and 25 mM KCl (all from Sigma-Aldrich). Sixteen hours later, 10 μM cytosine arabinofuranoside (Sigma-Aldrich) was added to avoid glial proliferation. After 7 days in vitro, differentiated neurons were shifted to serum-free BME medium and exposed to increasing concentrations (5 μM, 10 μM, 25 μM) of compounds of interest for 24 h. Then, cell viability was evaluated through the MTT assay.
For MTT assay, thiazolyl blue was added to the culture medium at a final concentration of 0.1 mg/mL. Following a 20 min incubation at 37 °C in the dark, the MTT precipitate was dissolved in 0.1 M Tris–HCl pH 7.5 buffer containing 5% Triton X-100 (all from Sigma-Aldrich) and absorbance was read at 570 nm in a microplate spectrophotometric reader (Bio-Rad).

Chain of human recombinant GSK-3β (P49841 whole entry): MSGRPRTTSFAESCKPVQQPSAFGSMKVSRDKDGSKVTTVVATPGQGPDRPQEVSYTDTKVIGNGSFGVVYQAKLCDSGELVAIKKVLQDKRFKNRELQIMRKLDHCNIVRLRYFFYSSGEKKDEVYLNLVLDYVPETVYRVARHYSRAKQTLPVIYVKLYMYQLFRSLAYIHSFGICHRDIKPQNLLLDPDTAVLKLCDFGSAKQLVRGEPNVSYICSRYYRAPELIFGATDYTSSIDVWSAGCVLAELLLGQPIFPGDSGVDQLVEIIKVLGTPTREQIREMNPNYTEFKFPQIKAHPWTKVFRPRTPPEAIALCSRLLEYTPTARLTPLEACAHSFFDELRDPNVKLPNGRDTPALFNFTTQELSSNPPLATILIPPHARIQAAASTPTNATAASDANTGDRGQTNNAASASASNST
Chain of FYNα (P06241 whole entry): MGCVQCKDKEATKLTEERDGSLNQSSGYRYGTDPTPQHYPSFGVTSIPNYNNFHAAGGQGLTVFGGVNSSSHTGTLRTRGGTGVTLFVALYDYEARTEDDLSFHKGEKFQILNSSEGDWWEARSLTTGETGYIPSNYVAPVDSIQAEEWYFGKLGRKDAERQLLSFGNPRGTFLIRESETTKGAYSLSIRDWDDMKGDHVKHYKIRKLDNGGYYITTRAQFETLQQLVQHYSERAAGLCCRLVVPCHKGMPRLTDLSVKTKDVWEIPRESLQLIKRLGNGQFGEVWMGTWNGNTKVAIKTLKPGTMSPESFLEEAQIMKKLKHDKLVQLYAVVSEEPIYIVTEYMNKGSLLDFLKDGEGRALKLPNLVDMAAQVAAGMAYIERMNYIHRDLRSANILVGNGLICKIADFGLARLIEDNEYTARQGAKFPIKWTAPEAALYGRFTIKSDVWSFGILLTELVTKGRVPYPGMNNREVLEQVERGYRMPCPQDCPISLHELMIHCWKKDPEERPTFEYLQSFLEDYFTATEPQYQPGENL

Consider `Br.C=CCn1cc(-c2csc(NCc3ccccc3)n2)c2cccnc21` [Compound 36], for which the inhibition at 50 µM at human recombinant GSK-3β came out at 4%. Further, at FYNα, the “Fyn % Inhibition @ 50 μM” value was “n.i”.

Regarding `Br.c1cnc2[nH]cc(-c3csc(NCc4ccncc4)n3)c2c1` [Compound 27, N-(Pyridin-4-ylmethyl)-4-(1H-pyrrolo[2,3-b]pyridin-3-yl)thiazol-2-amine Hydrobromide], in data set [1], the “Neurosphere dimension (brightfield object total area), maturation” value is “noticeable maturation at days 6 and 7”; the “Neurosphere number (object count per image), neurogenesis” value is listed as “pronounced neurogenesis”. Moreover, at FYNα, the IC50 was determined as 3.48 ± 0.68 µM.

Turning to `Br.c1ccc2c(Nc3nc(-c4c[nH]c5ncccc45)cs3)cccc2c1` [Compound 8, N-(Naphthalen-1-yl)-4-(1H-pyrrolo[2,3-b]pyridin-3-yl)thiazol-2-amine Hydrobromide], on human recombinant GSK-3β, the inhibition at 50 µM amounted to 5.1%. Moreover, at FYNα, the “Fyn % Inhibition @ 50 μM” value is reported as “n.i”.

As for `C=CCNc1nc(-c2c[nH]c3ncccc23)cs1` [Compound 4, N-Allyl-4-(1H-pyrrolo[2,3-b]pyridin-3-yl)thiazol-2-amine Hydrobromide], the results for the inhibition at 50 µM on human recombinant GSK-3β and at FYNα were 61.6% and 28.5%, respectively.

For `CNc1nc(-c2c[nH]c3ncccc23)cs1` [Compound 1, N-Methyl-4-(1H-pyrrolo[2,3-b]pyridin-3-yl)thiazol-2-amine Hydrobromide], the results for the inhibition at 50 µM on human recombinant GSK-3β and at FYNα were 65.8% and 22.3%, respectively.

As to `Nc1nc(-c2c[nH]c3ncccc23)cs1` [Compound I], the IC50 at human recombinant GSK-3β is 6.84 ± 0.17 µM. Also, the inhibition at 50 µM at FYNα worked out at 47.2%.

On to `Br.c1cnc2[nH]cc(-c3csc(NC4CCCCC4)n3)c2c1` [Compound 5, N-Cyclohexyl-4-(1H-pyrrolo[2,3-b]pyridin-3-yl)thiazol-2-amine Hydrobromide], for which the inhibition at 50 µM at human recombinant GSK-3β amounted to 37.4%. In addition, the “Fyn % Inhibition @ 50 μM” value on FYNα is given as “n.i”.

Turning to `Br.O=[N+]([O-])c1ccc(Nc2nc(-c3c[nH]c4ncccc34)cs2)cc1` [Compound 14, N-(4-Nitrophenyl)-4-(1H-pyrrolo[2,3-b]pyridin-3-yl)thiazol-2-amine Hydrobromide], the inhibition at 50 µM at human recombinant GSK-3β came to 8%. In addition, the “Fyn % Inhibition @ 50 μM” value at FYNα is recorded as “n.i”.

Take `Br.Cc1ccc(Nc2nc(-c3c[nH]c4ncccc34)cs2)cc1` [Compound 11, 4-(1H-Pyrrolo[2,3-b]pyridin-3-yl)-N-(p-tolyl)thiazol-2-amine Hydrobromide]: the inhibition at 50 µM at human recombinant GSK-3β amounted to 50.1%. For the same compound, the “Fyn % Inhibition @ 50 μM” value on FYNα is listed as “n.i”.

As for `Br.Clc1ccc(Nc2nc(-c3c[nH]c4ncccc34)cs2)cc1` [Compound 13, N-(4-Chlorophenyl)-4-(1H-pyrrolo[2,3-b]pyridin-3-yl)thiazol-2-amine Hydrobromide], at human recombinant GSK-3β, the inhibition at 50 µM was determined as 14.8%. In addition, on FYNα, the “Fyn % Inhibition @ 50 μM” value was “n.i”.

As for `Br.CN(C)c1ccc(CNc2nc(-c3c[nH]c4ncccc34)cs2)cc1` [Compound 26, N-(4-(Dimethylamino)benzyl)-4-(1H-pyrrolo[2,3-b]pyridin-3-yl)thiazol-2-amine Hydrobromide], at human recombinant GSK-3β, the “GSK-3β % Inhibition @ 50 μM” value is “completely inactive”. In addition, the “TREM2 expression (M2 marker) vs LPS” value in data set [2] is recorded as “no significant variations”. In addition, the “Neurotoxicity on CGNs (cell viability compared to control)” value in data set [3] is “not neurotoxic”. Besides, the “Fyn % Inhibition @ 50 μM” value on FYNα is “completely inactive”.

In the case of `c1ccc(CCNc2nc(-c3c[nH]c4ncccc34)cs2)cc1` [Compound 31, N-Phenethyl-4-(1H-pyrrolo[2,3-b]pyridin-3-yl)thiazol-2-amine Hydrobromide], on human recombinant GSK-3β, the IC50 is 7.5 ± 1.29 µM.

On to `Br.c1ccc(CNc2nc(-c3c[nH]c4ccccc34)cs2)cc1` [Compound 34], for which the “GSK-3β % Inhibition @ 50 μM” value on human recombinant GSK-3β is “n.i”. At FYNα, the “Fyn % Inhibition @ 50 μM” value was “n.i”.

On to `Br.Cc1sc(NCc2ccncc2)nc1-c1c[nH]c2ncccc12` [Compound 42, 5-Methyl-N-(pyridin-4-ylmethyl)-4-(1H-pyrrolo[2,3-b]pyridin-3-yl)thiazol-2-amine Hydrobromide], for which the “Neurosphere dimension (brightfield object total area), maturation” value in data set [1] was “premature increase in dimension”. Besides, the IC50 on FYNα turned out to be 0.2 ± 0.02 µM.

Regarding `c1ccc(Nc2nc(-c3c[nH]c4ncccc34)cs2)nc1` [Compound 10, N-(Pyridin-2-yl)-4-(1H-pyrrolo[2,3-b]pyridin-3-yl)thiazol-2-amine Hydrobromide], the inhibition at 50 µM at human recombinant GSK-3β is 24.1%; at FYNα, 3.7%.

As to `COCCNc1nc(-c2c[nH]c3ncccc23)cs1` [Compound 3, N-(2-Methoxyethyl)-4-(1H-pyrrolo[2,3-b]pyridin-3-yl)thiazol-2-amine Hydrobromide], the inhibition at 50 µM at human recombinant GSK-3β turned out to be 58.8%; at FYNα it was 41.7%.

As to `Cc1ccc(CNc2nc(-c3c[nH]c4ncccc34)cs2)cc1` [Compound 22, N-(4-Methylbenzyl)-4-(1H-pyrrolo[2,3-b]pyridin-3-yl)thiazol-2-amine Hydrobromide], on human recombinant GSK-3β (read-out: GSK-3β percentage of inhibition at the highest dose tested (100 μM)), the inhibition at 100 µM is 77.1%.

Consider `Clc1ccccc1Nc1nc(-c2c[nH]c3ncccc23)cs1` [Compound 9, N-(2-Chlorophenyl)-4-(1H-pyrrolo[2,3-b]pyridin-3-yl)thiazol-2-amine Hydrobromide], for which the inhibition at 50 µM on human recombinant GSK-3β was determined as 32.7%; on FYNα, 55%.

As to `Br.CCCCNc1nc(-c2c[nH]c3ncccc23)cs1` [Compound 2, N-Butyl-4-(1H-pyrrolo[2,3-b]pyridin-3-yl)thiazol-2-amine Hydrobromide], on human recombinant GSK-3β, the inhibition at 50 µM was determined as 54.9%. Moreover, the “Fyn % Inhibition @ 50 μM” value at FYNα is “n.i”.

As for `Br.COc1ccc(Nc2nc(-c3c[nH]c4ncccc34)cs2)cc1` [Compound 12, N-(4-Methoxyphenyl)-4-(1H-pyrrolo[2,3-b]pyridin-3-yl)thiazol-2-amine Hydrobromide], at human recombinant GSK-3β, the inhibition at 50 µM came to 34.6%. Moreover, on FYNα, the “Fyn % Inhibition @ 50 μM” value is on record as “n.i”.

Regarding `Br.Cn1cc(-c2csc(NCc3ccccc3)n2)c2cccnc21` [Compound 35], the inhibition at 50 µM on human recombinant GSK-3β was found to be 9.8%. Further, the “Fyn % Inhibition @ 50 μM” value on FYNα is recorded as “n.i”.
